These results are taken from patent publication US6147098A, “Substituted guanidines and diaminonitroethenes, their preparation and use” (Novo Nordisk A/S, priority 1998, dated 2000).

The subject of one test is rin 5F cells. Put plainly: 86Rb+ efflux from a β-cell line (increased Rb-efflux in rin 5F cells). It is filed as cell-based. The following applies: 1 h at room temperature. How it is done:
An opening of KATP -channels will result in an efflux of potassium ions. By measuring the release of ^86 Rb^+ (a radioactive potassium mimic) from e.g. beta-cells pre-incubated in the presence of ^86 Rb^+ the effect of compounds acting as potassium channel openers can be determined. The test expresses the ability of the compounds to regulate the secretion of insulin from the beta-cells.
^86 Rb^+ efflux from a β-cell line
The RIN 5F cell line was grown in RPMI 1640 with Glutamax I, supplemented with 10% fetal calf serum (from GibcoBRL, Scotland, UK) and maintained in an atmosphere of 5% CO2 /95% air at 37° C. The cells were detached with a Trypsin-EDTA solution (from GibcoBRL, Scotland, UK), resuspended in medium, added 1 mCi/ml ^86 Rb^+ and replated into microtiter plates (96 well cluster 3596, sterile, from Costar Corporation,Mass., USA) at a density of 50000 cells/well in 100 μl/well, and grown 24 hours before use in assay.
The plates were washed 4 times with Ringer buffer (150 mM NaCl, 10 mM Hepes, 3.0 mM KCl, 1.0 mM CaCl2, 20 mM Sucrose, pH 7.1). Eighty μl Ringer buffer and 1 μl control- or test compound dissolved in DMSO was added. […] The plates were counted in TopCount (Packard Instrument Company, CT, USA) for 1 min/well at the 32p program. […]

Another test concerns rat aorta rings. Description: Relaxation of rat aorta rings. It is filed as cell-based. Conditions: phenylephrine-contracted rat thoracic aorta rings; cumulative addition; read-out: EC50 (concentration required to evoke a 50% relaxation of the tissue). As for the experimental part: The activity of the compounds as potassium channel openers can also be measured as relaxation of rat aorta rings according to the following procedure:
A section of rat thoracic aorta between the aortic arch and the diaphragm was dissected out and mounted as ring preparations as described by Taylor P. D. et al, Brit J. Pharmacol, 111, 42-48 (1994).
After a 45 min. equilibration period under a tension of 2 g, the preparations were contracted to achieve 80% of the maximum response using the required concentration of phenylephrine. When the phenylephrine response reached a plateau, potential vasodilatory agents were added cumulatively to the bath in small volumes using half log molar increments at 2 min intervals. Relaxation was expressed at the percentage of the contracted tension. The potency of a compound was expressed as the concentration required to evoke a 50% relaxation of the tissue.

In the next test the test system is IDDM. Conditions: animal experiments and early non-blinded experiments in humans; cited from earlier work.

In the case of `CC(C)CCN=C(NC#N)Nc1cc(C(F)(F)F)cc(C(F)(F)F)c1` [Example 1, N-Cyano-N'-(3,5-bis(trifluoromethyl)phenyl)-N"-(3-methylbutyl)guanidine], the results for the EC50 in the test on rin 5F cells and in the test on rat aorta rings were 2600 nM and 5.6 µM, respectively.
`NC(=O)c1cccnc1` [Nicotinamide]: the “role against IDDM and cytokine/immune mediated beta-cell destruction” value in the test on IDDM is “protective role”.
